From patent US8450357B2, “Compositions comprising an aryl pyrazole and/or a formamidine, methods and uses thereof” (Merial Limited, priority 2008, dated 2013)

Columns and labels:
[1] = Crystal formation of amitraz formulations on storage or on the coat; assay type: physicochemical
Protocol: Solutions of amitraz in certain solvents at high concentration result in the appearance of crystals over time. […] The solubility of amitraz in butyl acetate is lower then in anisole, MIK and ethyl benzoate. […] Additionally, when amitraz (25%) in butyl acetate formulations were stored at 50° C. in a chamber, they evaporated slightly. […] Again, lowering concentration to 20% and addition of co-solvents with higher solubility of amitraz avoided crystallization of amitraz. Unexpectedly, this addition of co-solvents caused the effects described below in Example 9.

[2] = Stability of amitraz in solution, aged at 50° C., HPLC; assay type: physicochemical; conditions: 28 % (w/v) Amitraz in Methyl isobutyl ketone (MIK)
Protocol: Formulation comprising amitraz in anisole (formulation L), butyl acetate (formulation M), methyl isobutyl ketone and ethyl benzoate were evaluated for stability by HPLC, similarly to the stability study for formulations comprising compound 1. Thus the formulations were tested for initial concentration of amitraz % (w/v) and aged at 50° C. for three months. The concentration of amitraz in each formulation was determined at 1 month, 2 months and 3 months to determine the stability of amitraz in each formulation.

With `Cc1ccc(/N=C/N(C)/C=N/c2ccc(C)cc2C)c(C)c1` [Amitraz, amitraz] the “crystals upon cooling to room temperature” value ([1]; amitraz (25%) in butyl acetate stored at 50° C. in a chamber) was “precipitated crystals”, the “crystals on the coat of animals” value ([1]; amitraz (25%) in butyl acetate, clinical studies) was “produced white crystals” and the Amitraz % theoretical ([2]; 1 month at 50° C.) was 93 % theoretical. It also gave an Amitraz % theoretical ([2]; 2 months at 50° C.) of 98 % theoretical and an Amitraz % theoretical ([2]; 3 months at 50° C.) of 100 % theoretical.
